Laboratory results published in patent publication US7008950B1, “Benzofurans as suppressors of neurodegeneration” (Takeda Chemical Industries, Ltd., priority 1997, dated 2006).

Tested on: human neuroblastoma SK—N—SH cells
Assay: Cell protective activity against β-amyloid 25-35-induced neurotoxicity (Alamar Blue cell viability)
Type: cell-based
Details: test compound 1 μM with β-amyloid 25-35 10 μM; rhIFN-γ-pretreated SK—N—SH cells; viability by Alamar Blue after 3 days; [(A−B)/(C−B)]×100
Excerpt: Evaluation of cell protective activity against β-amyloid neurotoxicity in human neuroblastoma SK—N—SH cells.
• Human neuroblastoma SK—N—SH cells: obtained from American Type Tissue Culture Collection (ATCC). DMEM/F-12 medium: obtained from Nikken Biological Medicine Laboratory Co. • Ca^++ and Mg^++ free phosphate-buffered saline (PBS(−)): obtained Nikken Biological Medicine Laboratory Co. • N2 supplement™, and EDTA solution: obtained from Gibco BRL Co. • Fetal calf serum, and mixture of penicillin (5000 U/mL) and streptomycin (5 mg/mL): obtained from Bio Whittaker Co. • Recombinant human interferon gamma (rhIFN-γ): obtained from Wako Pure Chemical Co. • Alamar Blue™ reagent: obtained from AccuMed International, Inc. • Culture flasks: manufactured by Falcon Co. Collagen-coated, 96-well multi-plate: manufactured by Iwaki Glass Co. • β-amyloid 25-35: obtained from Bachem AG. • Other reagents: commercially-available special-grade chemicals. b) Test Method (1) Cultivation of SK—N—SH cells
SK—N—SH cells were sub-cultured in DMEM/F12 medium containing 5% FCS, 0.5% N2 supplement™, 1% of mixture of penicillin (5000 U/mL) and streptomycin (5 mg/mL), under 10 t CO2 and 90% air, using CO2 incubator. At sub-confluent condition, cells were harvested from culture flask with PBS(−) containing 2.5 mM EDTA, and plated at a density of 1.0×10^4 cells/100 μl of culture medium/well in collagen-coated 96-well multi-plate. The next day, 80 μl of culture medium was substituted with DMEM/F12 medium (containing neither FCS nor N2 supplement) containing 1.25 ng/mL of rhIFN-γ, and after 24 hr cultivation cells were used for cell toxicity assay mentioned below.
(2) Measurement of cell protective activity of test compounds against β-amyloid 25-35-induced neurotoxicity
After pretreatment of SK—N—SH cells with rhIFN-γ in collagen-coated 96 well multi-plate, cell toxicity assay was started by addition of β-amyloid 25-35 and test compound. Briefly, 80 μl of culture medium was removed, and 40 μl of β-amyloid 25-35 and 40 μl of test compound were added to cultures at the same time. The final concentrations of β-amyloid 25-35 and test compounds were 10 μM and 1 μM, respectively.
The test compound was dissolved at 10 mM in dimethylsulfoxide (DMSO) and diluted in DMEM/F12 medium. β-amyloid 25-35 was dissolved at 5 mM in sterile pure water, and stored at −80° C. Immediately before use, the stock solution β-amyloid 25-35 was diluted in DMEM/F12 medium and sonicated.
(3) Evaluation of cell protective activity of test compound
Cell viability was assessed by the reduction of Alamar Blue™ reagents, 3 days after starting of the cell toxicity assay. Briefly, 20 μl of culture medium was substituted with 20 μl of Alamar Blue™ reagents and incubated 4 hours. Absorbances were determined at wavelengths of 570 nm and 600 nm using a plate reader (MTP-32 Micro-plate Reader, manufactured by Corona Co.). Amount of reduced Alamar Blue reagents was determined by subtracting absorbance600 from absorbance570. The cell protective activity of the test compound was estimated according to the following equation: • Cell protective activity of compound [(A−B)/(C−B)]×100 (%) 20 where; • A: cell viability of the group treated with both the test compound and β-amyloid • B: cell viability of the group treated with β-amyloid only • C: cell viability of the control group Results
Cell viability of the group treated with both the test compound and β-amyloid was compared with that 30 group treated with β-amyloid only using Dunnett's test.
Cell viability of each group was determined using at least 4 culture well.

Row | Structure (SMILES) | Cell Protecting Activity (%)
1 | COc1ccc(COc2c(C)c(C)c3c(c2C)C(c2ccc(N4CCOCC4)cc2)C(C)(C)O3)cc1 (stereo not shown) [Example 7, 5-(4-Methoxybenzyloxy)-3-[4-(4-morpholinyl)phenyl]-2,2,4,6,7-pentamethyl-2,3-dihydrobenzofuran] | 27.3
2 | Cc1c(C)c2c(c(C)c1OCc1ccccc1)C(c1ccc(C(C)C)cc1)C(C)(C)O2 (stereo not shown) [Example 1, 5-Benzyloxy-3-(4-isopropylphenyl)-2,2,4,6,7-pentamethyl-2,3-dihydrobenzofuran] | 30.7
3 | Cc1c(C)c2c(c(C)c1OCC=Cc1ccccc1)C(c1ccc(C(C)C)cc1)C(C)(C)O2 (stereo not shown) [Example 12, 3-(4-Isopropylphenyl)-2,2,4,6,7-pentamethyl-5-(3-phenyl-2-propen-1-yloxy)-2,3-dihydrobenzofuran] | 44.8
4 | Cc1c(C)c2c(c(C)c1OCCC(c1ccccc1)c1ccccc1)C(c1ccc(C(C)C)cc1)C(C)(C)O2 (stereo not shown) [Example 14, 5-(3,3-Diphenylpropyloxy)-3-(4-isopropylphenyl)-2,2,4,6,7-pentamethyl-2,3-dihydrobenzofuran] | 44.2
5 | Cc1c(C)c2c(c(C)c1OCCc1ccccc1)C(c1ccc(C(C)C)cc1)C(C)(C)O2 (stereo not shown) [Example 25, 3-(4-Isopropylphenyl)-2,2,4,6,7-pentamethyl-5-(2-phenylethyl)oxy-2,3-dihydrobenzofuran] | 47.0
6 | Cc1c(C)c2c(c(C)c1OCc1ccccc1)C(c1ccc(N(C)C)cc1)C(C)(C)O2 (stereo not shown) [Example 2, 5-Benzyloxy-3-[4-(dimethylamino)phenyl]-2,2,4,6,7-pentamethyl-2,3-dihydrobenzofuran] | 27.9
7 | Cc1c(C)c2c(c(C)c1OCc1ccccc1)CC(C)(CN1CCN(c3ccccc3)CC1)O2 (stereo not shown) [Example 3, 5-Benzyloxy-2,4,6,7-tetramethyl-2-(4-phenyl-1-piperazinyl)methyl-2,3-dihydrobenzofuran] | 39.4
